The term half-life denotes the time in which the quantity being followed falls by half.

Consider one compound from patent US20260048049A1, “METHODS FOR TREATING CANCER USING INHALED ANGIOGENESIS INHIBITOR” (Pulmatrix Operating Company, Inc., priority 2022, published 2026).

Where two headings read alike, the source gives them in different places.

For series [1] the following is noted: cited from earlier work.
For series [2], the system named is Calu-3 cell line epithelial cell monolayers. Nature of the series: cNGI integrated dissolution and permeability study. In kind it is in vitro ADME. As to conditions: Calu-3 ALI monolayer, stage 4 of cNGI. From the text:
This was done using the following equation: […]

Series [3] in a line: UniDose POD in vitro dissolution of the impactor stage mass (ISM). The series is classed as physicochemical. As to conditions: 500 ml PBS pH 7.4 + 2.0% SDS, 37° C. From the text:
The following in vitro dissolution model was used to understand the dissolution properties of itraconazole containing dry powder aerosols. The aerosol particles were collected at well-defined aerosol particle size distribution (APSD) cut-offs using the Next Generation Impactor (NGI) (Copley Scientific, UK), and then the dissolution behavior simulated using model lung fluid.
A UniDose™ (Nanopharm, Newport, United Kingdom) aerosol dose collection system combined with a modified next generation impactor (NGI) was used to uniformly deposit the impactor stage mass (ISM), which is defined as the dose collected on and below stage 2 of a next generation impactor, onto a suitable filter for subsequent dissolution studies in a USP V—Paddle over disk (POD) apparatus.
The aerosol dose was collected in the UniDose system. […] The UniDose collection system was used to uniformly deposit the whole impactor stage mass (i.e., below stage 2 of an NGI) onto a glass microfiber filter membrane, which can be seen as where the circles (representing particles or droplets) deposit. The filter was placed into a disk cassette and dissolution studies were undertaken using 500 ml PBS pH 7.4+2.0% SDS in a USP Apparatus II POD (Paddle Over Disk, USP V) at 37° C. For all studies, sink conditions were maintained within the vessel. […]

For the compound `CCC(C)n1ncn(-c2ccc(N3CCN(c4ccc(OCC5COC(Cn6cncn6)(c6ccc(Cl)cc6Cl)O5)cc4)CC3)cc2)c1=O` (stereo not shown) [Pure ITZ, itraconazole], the plasma protein binding in series [1] (capsules) is on record as 99.6%; in series [1] (oral solution) it was 99.8%. Further, in series [2], the “dissolution and permeability kinetics” value was “slower dissolution and permeability kinetics than the other formulations”. In addition, the half-life in series [3] is 1.7 h.
